Experimental data reported in patent publication US8133884B2, “Compounds for the treatment of hepatitis C” (priority 2008, dated 2012).

Experiments:
[1] = system: HCV replicon; assay: HCV replicon assay (FRET or luciferase reporter); assay type: cell-based; details: Hepatitis C virus, one of the methods described
Source text: To perform the HCV FRET screening assay, 96-well cell culture plates were used, The FRET peptide (Anaspec, Inc.) (Taliani et al., Anal. Biochem., 240:60-67 (1996)) contains a fluorescence donor, EDANS, near one end of the peptide and an acceptor, DABCYL, near the other end. The fluorescence of the peptide is quenched by […] resonance energy transfer (RET) between the donor and the acceptor, but as the NS3 protease cleaves the peptide the products are released from RET quenching and the fluorescence of the donor becomes apparent. The assay reagent was made as follows: 5× cell Luciferase cell culture lysis reagent from Promega (#E153A) diluted to 1× with dH2O, NaCl added to 150 mM final, the FRET peptide diluted to 20 μM final from a 2 mM stock.
To prepare plates, HCV replicon cells, with or without a Renilla luciferase reporter gene, were trypsinized and placed into each well of a 96-well plate with titrated test compounds added in columns 3 through 12; columns 1 and 2 contained a control compound (HCV protease inhibitor), and the bottom row contained cells without compound. The plates were then placed in a CO2 incubator at 37° C.
Subsequent to addition of the test compounds described above (FRET Assay Preparation), at various times the plate was removed and Alamar blue solution (Trek Diagnostics, #00-100) was added per well as a measure of cellular toxicity. After reading in a CYTOFLUOR® 4000 instrument (PE Biosystems), plates were rinsed with PBS and then used for FRET assay by the addition of 30 ul of the FRET peptide assay reagent described above (FRET Assay Preparation) per well. The plate was then placed into the CYTOFLUOR® 4000 instrument which had been set to 340 excite/490 emission, automatic mode for 20 cycles and the plate read in a kinetic mode. Typically, the signal to noise using an endpoint analysis after the reads was at least three-fold. Alternatively, after Alamar blue reading, plates were rinsed with PBS, 50 ul of DMEM (high glucose) without phenol red was added and plates were then used for luciferase assay using the Promega DUAL-GLO® Luciferase Assay System.
Compound analysis was determined by quantification of the relative HCV replicon inhibition and the relative cytotoxicity values. To calculate cytoxicity values, the average Alamar Blue fluorescence signals from the control wells were set as 100% non-toxic. The individual signals in each of the compound test wells were then divided by the average control signal and multiplied by 100% to determine […]. To calculate the HCV replicon inhibition values, an average background value was obtained from the two wells containing the highest amount of HCV protease inhibitor at the end of the assay period. These numbers were similar to those obtained from naïve Huh-7 cells.
The background numbers were then subtracted from the average signal obtained from the control wells and this number was used as 100% activity. The individual signals in each of the compound test wells were then divided by the averaged control values after background subtraction and multiplied by 100% to determine percent activity. EC50 values for a protease inhibitor titration were calculated as the concentration which caused a 50% reduction in FRET or luciferase activity. The two numbers generated for the compound plate, percent cytoxicity and percent activity were used to determine compounds of interest for further analysis.
The HCV replicon luciferase assay was developed to monitor the inhibitory effects of compounds described in the disclosure on HCV viral replication. Utilization of a replicon luciferase reporter assay was first described by Krieger et al (Krieger, N. et al., J. Virology, 75(10):4614-4624 (2001)). HUH-7 cells, constitutively expressing the HCV replicon, were grown in Dulbecco's Modified Eagle Media (DMEM) (Gibco-BRL) containing 10% Fetal calf serum (FCS) (Sigma) and 1 mg/ml G418 (Gibco-BRL). […]

[2] = biological target: T1, HCV NS5B (Hepatitis C virus genotype 1b, UniProt Q9WMX2); assay: Modified HCV NS5B RdRp enzyme assay (preincubation protocol); assay type: biochemical
T1 construct: The protein was expressed with an 18 amino acid C-terminal truncation to enhance the solubility; made in house; host or cells: E. coli BL21(DE3)
Procedure: The cDNA encoding the NS5B protein of HCV, genotype 1b, was cloned into the pET21a expression vector. The protein was expressed with an 18 amino acid C-terminal truncation to enhance the solubility. The E. coli competent cell line BL21(DE3) was used for expression of the protein. Cultures were grown at 37° C. for ˜4 hours until the cultures reached an optical density of 2.0 at 600 nm. The cultures were cooled to 20° C. and induced with 1 mM IPTG. Fresh ampicillin was added to a final concentration of 50 μg/ml and the cells were grown overnight at 20° C.
Cell pellets (3 L) were lysed for purification to yield 15-24 mgs of purified NS5B. The lysis buffer consisted of 20 mM Tris-HCl, pH 7.4, 500 mM NaCl, 0.5% triton X-100, 1 mM DTT, 1 mM EDTA, 20% glycerol, 0.5 mg/ml lysozyme, 10 mM MgCl2, 15 ug/ml deoxyribonuclease I, and Complete TM protease inhibitor tablets (Roche). After addition of the lysis buffer, frozen cell pellets were resuspended using a tissue homogenizer. To reduce the viscosity of the sample, aliquots of the lysate were sonicated on ice using a microtip attached to a Branson sonicator. The sonicated lysate was centrifuged at 100,000×g for 1 hr at 4° C. and filtered through a 0.2 μm filter unit (Corning).
The protein was purified using three sequential chromatography steps: Heparin sepharose CL-6B, polyU sepharose 4B, and […] SP sepharose (Pharmacia). The chromatography buffers were identical to the lysis buffer but contained no lysozyme, deoxyribonuclease I, MgCl2 or protease inhibitor and the NaCl concentration of the buffer was adjusted according to the requirements for charging the protein onto the column. Each column was eluted with a NaCl gradient which varied in length from 5-50 column volumes depending on the column type. After the final chromatography step, the resulting purity of the enzyme is >90% based on SDS-PAGE analysis. The enzyme was aliquoted and stored at −80° C.
HCV RdRp genotype 1b assays were run in a final volume of 60 μl in 96 well plates (Costar 3912). The assay buffer is composed of 20 mM Hepes, pH 7.5, 2.5 mM KCl, 2.5 mM MgCl2, 1 mM DTT, 1.6 U RNAse inhibitor (Promega N2515), 0.1 mg/ml BSA (Promega R3961), and 2% glycerol. All compounds were serially diluted (3-fold) in DMSO and diluted further in water such that the final concentration of DMSO in the assay was 2%. HCV RdRp genotype 1b enzyme was used at a final concentration of 28 nM. A polyA template was used at 6 nM, and a biotinylated oligo-dT12 primer was used at 180 nM final concentration. Template was obtained commercially (Amersham 27-4110). Biotinylated primer was prepared by Sigma Genosys. 3H-UTP was used at 0.6 μCi (0.29 μM total UTP). Reactions were initiated by the addition of enzyme, incubated at 30° C. for 60 min, and stopped by adding 25 μl of 50 mM EDTA containing SPA beads (4 μg/μl, Amersham RPNQ 0007). Plates were read on a Packard TOPCOUNT® NXT after >1 hr incubation at room temperature.
A modified enzyme assay was performed essentially as described for the standard enzyme assay except for the following: The biotinylated oligo dT12 primer was precaptured on streptavidin-coated SPA beads by mixing primer and beads in assay buffer and incubating at room temperature for one hour. Unbound primer was removed after centrifugation. The primer-bound beads were resuspended in 20 mM Hepes buffer, pH 7.5 and used in the assay at final concentrations of 20 nM primer and 0.67 μg/μl beads. Order of addition in the assay: enzyme (14 nM) was added to diluted compound followed by the addition of a mixture of template (0.2 nM), 3H-UTP (0.6 μCi, 0.29 μM), and primer-bound beads, to initiate the reaction; concentrations given are final. Reactions were allowed to proceed for 4 hours at 30° C.
IC50 values for compounds were determined using seven different [I]. IC50 values were calculated from the inhibition using the formula y=A+((B−A)/(1+((C/x)^D))).

T1 sequence (Q9WMX2 2420-2992): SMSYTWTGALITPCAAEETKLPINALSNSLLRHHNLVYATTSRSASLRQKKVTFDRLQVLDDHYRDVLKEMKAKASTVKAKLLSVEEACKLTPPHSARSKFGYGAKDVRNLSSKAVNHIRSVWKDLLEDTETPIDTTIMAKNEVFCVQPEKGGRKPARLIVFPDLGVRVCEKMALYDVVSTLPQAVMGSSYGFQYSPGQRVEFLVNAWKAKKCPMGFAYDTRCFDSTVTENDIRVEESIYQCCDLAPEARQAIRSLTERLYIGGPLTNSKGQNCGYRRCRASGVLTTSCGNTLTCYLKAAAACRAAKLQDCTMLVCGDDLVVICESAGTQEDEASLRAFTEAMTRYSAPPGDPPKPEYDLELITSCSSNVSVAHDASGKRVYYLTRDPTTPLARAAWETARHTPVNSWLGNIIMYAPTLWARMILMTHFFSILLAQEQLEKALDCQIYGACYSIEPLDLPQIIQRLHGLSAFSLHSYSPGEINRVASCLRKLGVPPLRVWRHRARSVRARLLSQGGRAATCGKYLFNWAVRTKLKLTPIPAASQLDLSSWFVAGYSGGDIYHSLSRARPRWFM

COc1ccc2c(c1)C=C(c1c(C(=O)N3C[C@@H](C)N(C)[C@@H](C)C3)cnn1C1CCN(C)CC1)Cn1c-2c(C2CCCCC2)c2ccc(C(=O)NS(=O)(=O)C(C)C)cc21
EC50 ([1]; class symbol): 1.7 to 500 nM
IC50 ([2]; class symbol): 1.7 to 500 nM

COc1ccc2c(c1)C=C(c1c(C(=O)N3CCOCC3)cnn1C1CCOCC1)Cn1c-2c(C2CCCCC2)c2ccc(C(=O)NS(=O)(=O)CC(C)C)cc21
EC50 ([1]; class symbol): 1.7 to 500 nM
EC50 ([1]; exact value): 8.4 nM
IC50 ([2]; class symbol): 1.7 to 500 nM
IC50 ([2]; exact value): 4.2 nM

COc1ccc2c(c1)C=C(c1c(C(=O)N3C[C@@H](C)O[C@@H](C)C3)cnn1C1CCOCC1)Cn1c-2c(C2CCCCC2)c2ccc(C(=O)NS(=O)(=O)C(C)C)cc21
EC50 ([1]; class symbol): 1.7 to 500 nM
EC50 ([1]; exact value): 8.9 nM
IC50 ([2]; class symbol): 1.7 to 500 nM
IC50 ([2]; exact value): 2.6 nM

COc1ccc2c(c1)C=C(c1ncn(C3CC3)c1C(=O)N1CCOCC1)Cn1c-2c(C2CCCCC2)c2ccc(C(=O)NS(=O)(=O)C(C)C)cc21
EC50 ([1]; class symbol): 1.7 to 500 nM
EC50 ([1]; exact value): 8.8 nM
IC50 ([2]; class symbol): 1.7 to 500 nM
IC50 ([2]; exact value): 2.4 nM

CCN1C[C@H]2C[C@@H]1CN2C(=O)c1cnn(C2CCC2)c1C1=Cc2cc(OC)ccc2-c2c(C3CCCCC3)c3ccc(C(=O)NS(=O)(=O)C(C)C)cc3n2C1
EC50 ([1]; class symbol): 1.7 to 500 nM
IC50 ([2]; class symbol): 1.7 to 500 nM

COc1ccc2c(c1)C=C(c1c(C(=O)N3CC4CCC3C4)cnn1C1CCC1)Cn1c-2c(C2CCCCC2)c2ccc(C(=O)NS(=O)(=O)C(C)C)cc21 (centres unmarked)
EC50 ([1]; class symbol): 1.7 to 500 nM
IC50 ([2]; class symbol): 1.7 to 500 nM

COc1ccc2c(c1)C=C(c1c(C(=O)N3CC4CCC(C3)O4)cnn1C1CCC1)Cn1c-2c(C2CCCCC2)c2ccc(C(=O)NS(=O)(=O)C(C)C)cc21
EC50 ([1]; class symbol): 1.7 to 500 nM
EC50 ([1]; exact value): 10 nM
IC50 ([2]; class symbol): 1.7 to 500 nM
IC50 ([2]; exact value): 3.9 nM

COc1ccc2c(c1)C=C(c1c(C(=O)N3C4CCCC3COC4)c(C)nn1C1CCC1)Cn1c-2c(C2CCCCC2)c2ccc(C(=O)NS(=O)(=O)C(C)C)cc21
EC50 ([1]; class symbol): 1.7 to 500 nM
IC50 ([2]; class symbol): 1.7 to 500 nM

COc1ccc2c(c1)C=C(c1c(C(=O)N3C[C@@H](C)O[C@@H](C)C3)c(C)nn1C1CCC1)Cn1c-2c(C2CCCCC2)c2ccc(C(=O)NS(=O)(=O)C(C)C)cc21
EC50 ([1]; class symbol): 1.7 to 500 nM
EC50 ([1]; exact value): 10 nM
IC50 ([2]; class symbol): 1.7 to 500 nM
IC50 ([2]; exact value): 6.4 nM

COc1ccc2c(c1)C=C(c1c(C(=O)N3C[C@@H]4C[C@H]3CO4)cnn1C1CCC1)Cn1c-2c(C2CCCCC2)c2ccc(C(=O)NS(=O)(=O)C(C)C)cc21
EC50 ([1]; class symbol): 1.7 to 500 nM
EC50 ([1]; exact value): 30 nM
IC50 ([2]; class symbol): 1.7 to 500 nM
IC50 ([2]; exact value): 5.4 nM

COCCN(C(=O)c1cnn(C2CCC2)c1C1=Cc2cc(OC)ccc2-c2c(C3CCCCC3)c3ccc(C(=O)NS(=O)(=O)C(C)C)cc3n2C1)C(C)C
EC50 ([1]; class symbol): 1.7 to 500 nM
IC50 ([2]; class symbol): 1.7 to 500 nM

COc1ccc2c(c1)C=C(c1ncn(C3CCC3)c1C(=O)N1C[C@@H](C)O[C@@H](C)C1)Cn1c-2c(C2CCCCC2)c2ccc(C(=O)NS(=O)(=O)C(C)C)cc21
EC50 ([1]; class symbol): 1.7 to 500 nM
IC50 ([2]; class symbol): 1.7 to 500 nM

COc1ccc2c(c1)C=C(c1c(C(=O)N3CCN4CCC[C@H]4C3)cnn1C1CCC1)Cn1c-2c(C2CCCCC2)c2ccc(C(=O)NS(=O)(=O)C(C)C)cc21
EC50 ([1]; class symbol): 1.7 to 500 nM
IC50 ([2]; class symbol): 1.7 to 500 nM

COc1ccc2c(c1)C=C(c1c(C(=O)N3C4CCC3CN(C)C4)cnn1C1CCC1)Cn1c-2c(C2CCCCC2)c2ccc(C(=O)NS(=O)(=O)N(C)C)cc21
EC50 ([1]; class symbol): 1.7 to 500 nM
IC50 ([2]; class symbol): 1.7 to 500 nM

COC[C@@H]1CN(C(=O)c2cnn(C3CCC3)c2C2=Cc3cc(OC)ccc3-c3c(C4CCCCC4)c4ccc(C(=O)NS(=O)(=O)C(C)C)cc4n3C2)CCO1
EC50 ([1]; class symbol): 1.7 to 500 nM
IC50 ([2]; class symbol): 1.7 to 500 nM

COc1ccc2c(c1)C=C(c1c(C(=O)N3C[C@@H](C)O[C@@H](C)C3)cnn1-c1ccncc1C)Cn1c-2c(C2CCCCC2)c2ccc(C(=O)NS(=O)(=O)C3CC3)cc21
EC50 ([1]; class symbol): 1.7 to 500 nM
IC50 ([2]; class symbol): 1.7 to 500 nM

COc1ccc2c(c1)C=C(c1c(C(=O)N3CCOCC3)cnn1C1CCC1)Cn1c-2c(C2CCCCC2)c2ccc(C(=O)NS(=O)(=O)CC(C)C)cc21
EC50 ([1]; class symbol): 1.7 to 500 nM
IC50 ([2]; class symbol): 1.7 to 500 nM

CCOC(=O)c1cnn(-c2ccncc2C)c1C1=Cc2cc(OC)ccc2-c2c(C3CCCCC3)c3ccc(C(=O)O)cc3n2C1
EC50 ([1]; class symbol): 1.7 to 500 nM
IC50 ([2]; class symbol): 1.7 to 500 nM

CCN1C[C@@H]2C[C@H]1CN2C(=O)c1cnn(C2CCC2)c1C1=Cc2cc(OC)ccc2-c2c(C3CCCCC3)c3ccc(C(=O)NS(=O)(=O)N(C)C)cc3n2C1
EC50 ([1]; class symbol): 1.7 to 500 nM
IC50 ([2]; class symbol): 1.7 to 500 nM
